# Reference: US7105669B1, “Quinazoline derivatives” (AstraZeneca AB, priority 1999, dated 2006)
# Columns and labels:
# MCF7 cells = assay: In vitro cell cycle analysis assay (FACS, propidium iodide); type: cell-based, human; conditions: 12.76 μM, 24 hours
# Procedure: This assay determines the ability of a test compound to arrest cells in specific phases of the cell cycle. Many different mammalian cell lines could be used in this assay and MCF7 cells are included here as an example. MCF-7 cells were seeded at 3×10^5 cells per T25 flask (Costar) in 5 ml DMEM (no phenol red 10% FCS, 1% L-glutamine 1% penicillin/streptomycin). Flasks were then incubated overnight in a humidified 37° C. incubator with 5% CO2. The following day 1 ml of DMEM (no phenol red 10% FCS, 1% L-glutamine 1% penicillin/streptomycin) carrying the appropriate concentration of test compound solubilised in DMSO was added to the flask. A no compound control treatments was also included (0.5% DMSO). The cells were then incubated for a defined time (usually 24 hours) with compound. After this time the media was aspirated from the cells and they were washed with 5 ml of prewarmed (37° C.) sterile PBSA, then detached from the flask by brief incubation with trypsin and followed by resuspension in 10 ml of 1% Bovine Serum Albumin (BSA, Sigma-Aldrich Co.) in sterile PBSA. The samples were then centrifuged at 2200 rpm for 10 min. The supernatant was aspirated and the cell pellet was resuspended in 200 μl of 0.1% (w/v) Tris sodium citrate, 0.0564% (w/v) NaCl, 0.03% (v/v) Nonidet NP40, [pH 7.6]. Propridium Iodide (Sigma Aldrich Co.) was added to 40 μg/ml and RNAase A (Sigma Alrich Co.) to 100 μg/ml. The cells were then incubated at 37° C. for 30 minutes. The samples were centrifuged at 2200 rpm for 10 min, the supernatant removed and the remaining pellet (nuclei) resuspended in 200 μl of sterile PBSA. […] The samples were then transferred to LPS tubes and DNA content per cell analysed by Fluorescence activated cell sorting (FACS) using a FACScan flow cytometer (Becton Dickinson). Typically 25000 events were counted and recorded using CellQuest v1.1 software (Verity Software). Cell cycle distribution of the population was calculated using Modfit software (Verity Software) and expressed as percentage of cells in G0/G1, S and G2/M phases of the cell cycle. […]
# aurora2 kinase = molecular target: T1, aurora2 kinase (Homo sapiens, UniProt O14965); assay: In vitro aurora2 kinase inhibition test; type: biochemical
# T1 construct: made in house; host or cells: Spodoptera frugiperda Sf21 insect cells (baculovirus, pFastBac HTc)
# T1 sequence (O14965 1-403): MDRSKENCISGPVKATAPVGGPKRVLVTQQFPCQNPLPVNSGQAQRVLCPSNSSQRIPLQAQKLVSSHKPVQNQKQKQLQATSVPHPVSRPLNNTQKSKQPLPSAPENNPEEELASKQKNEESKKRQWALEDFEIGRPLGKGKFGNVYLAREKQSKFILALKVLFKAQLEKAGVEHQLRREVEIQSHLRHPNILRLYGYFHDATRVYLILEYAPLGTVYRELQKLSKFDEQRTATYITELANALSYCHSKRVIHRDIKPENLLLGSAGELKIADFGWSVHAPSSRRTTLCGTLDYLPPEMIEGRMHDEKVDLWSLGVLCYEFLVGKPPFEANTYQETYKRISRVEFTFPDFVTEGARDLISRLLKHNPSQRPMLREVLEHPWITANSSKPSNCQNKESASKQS
# MCF-7 cells [1] = assay: In vitro cell proliferation assay, Assay 2 (BrdU incorporation); type: cell-based; conditions: Homo sapiens, MCF7; MCF-7, 48 hours with compound, 2 hour BrdU labelling; read-out: concentration giving 50% inhibition of BrdU incorporation
# Source text: (§1) These and other assays can be used to determine the ability of a test compound to inhibit the growth of adherent mammalian cell lines, for example the human tumour cell line MCF7.
# This assay determines the ability of a test compound to inhibit the incorporation of the thymidine analogue, 5′-bromo-2′-deoxy-uridine (BrdU) into cellular DNA. MCF-7 or other adherent cells were typically seeded at 0.8×10^4 cells per well in DMEM (Sigma Aldrich) without phenol red, plus 10% foetal calf serum, 1% L-glutamine and 1% penicillin/streptomycin (50 μl/well) in 96 well tissue culture treated 96 well plates (Costar) and allowed to adhere overnight. […] The optical density of the wells was then determined at 690 nm wavelength using a Titertek Multiscan plate reader. […]
# MCF-7 cells [2] = assay: In vitro cell proliferation assay, Assay 1 (CyQUANT cell density); type: cell-based; conditions: Homo sapiens, MCF7, 72 h, MCF-7, 3 days with compound, read-out: concentration giving 50% inhibition of cell proliferation
# Source text: as §1
# MCF-7 (ATCC HTB-22) or other adherent cells were typically seeded at 1×10^3 cells per well (excluding the peripheral wells) in DMEM (Sigma Aldrich) without phenol red, plus 10% foetal calf serum, 1% L-glutamine and 1% penicillin/streptomycin in 96 well tissue culture treated clear plates (Costar). The following day (day 1), the media was removed from a no treatment control plate and the plate stored at −80° C. The remaining plates were dosed with compound (diluted from 10 mM stock in DMSO using DMEM (without phenol red, 10% FCS, 1% L-glutamine, 1% penicillin/streptomycin). Untreated control wells were included on each plate. After 3 days in the presence/absence of compound (day 4) the media was removed and the plates stored at −80° C. Twenty four hours later the plates were thawed at room temperature and cell density determined using the CyQUANT cell proliferation assay kit (c-7026/c-7027 Molecular Probes Inc.) according to manufacturers directions. Briefly, 200 μl of a cell lysis/dye mixture (10 μl of 20× cell lysis buffer B, 190 μl of sterile water, 0.25 μl of CYQUANT GR dye) was added to each well and the plates incubated at room temperature for 5 minutes in the dark. […]
structure (smiles),measurement,setting,value
COc1cc2ncnc(Nc3ccc(/C=C/C(=O)NC4CCCC(C)C4)cc3)c2cc1OC (stereo not drawn) [Compound 18],% Cells in G1,MCF7 cells,30.96%
same,% Cells in G2/M,MCF7 cells,49.62%
same,% Cells in S,MCF7 cells,19.42%
same,IC50,aurora2 kinase,117 nM
same,IC50,MCF-7 cells [1],2470 nM
same,IC50,MCF-7 cells [2],6380 nM
